# Results: PMC6272711, “5-Methoxyquinoline Derivatives as a New Class of EZH2 Inhibitors” (Molecules, 2015)
# Entries after “also recorded” stand apart in the source; their conditions may differ. Like-named read-outs stand apart in the source and are kept apart here.
# Columns and labels:
# HCT15 = test: MTT cell growth inhibition, HCT15; type: cell-based, human; conditions: means of at least three measurements
# MDA-MB-231 = test: MTT cell growth inhibition, MDA-MB-231; type: cell-based; conditions: Homo sapiens, MDA-MB-231, 96 h, read-out: IC50 MDA-MB-231
# SMYD3 = molecular target: T1, SMYD3 (Homo sapiens, UniProt Q9H7B4); test: Enzyme selectivity assay, SMYD3; type: biochemical; conditions: means of at least three measurements
# T1 sequence (Q9H7B4 1-428): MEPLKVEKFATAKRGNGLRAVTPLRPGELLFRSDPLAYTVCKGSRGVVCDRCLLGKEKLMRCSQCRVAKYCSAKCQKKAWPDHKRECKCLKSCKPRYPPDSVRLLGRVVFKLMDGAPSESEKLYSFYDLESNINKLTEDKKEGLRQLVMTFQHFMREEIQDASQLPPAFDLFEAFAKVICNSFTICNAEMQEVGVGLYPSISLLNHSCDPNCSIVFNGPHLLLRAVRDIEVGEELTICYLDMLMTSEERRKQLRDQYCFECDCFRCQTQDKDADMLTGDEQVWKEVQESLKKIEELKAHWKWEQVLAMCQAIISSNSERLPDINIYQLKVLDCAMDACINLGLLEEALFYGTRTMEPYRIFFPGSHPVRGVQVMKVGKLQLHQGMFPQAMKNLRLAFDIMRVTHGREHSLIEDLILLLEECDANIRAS
# G9a = molecular target: T2, G9a (Homo sapiens, UniProt Q96KQ7); test: Enzyme selectivity assay, G9a; type: biochemical; conditions: means of at least three measurements
# T2 sequence (Q96KQ7 1-1210): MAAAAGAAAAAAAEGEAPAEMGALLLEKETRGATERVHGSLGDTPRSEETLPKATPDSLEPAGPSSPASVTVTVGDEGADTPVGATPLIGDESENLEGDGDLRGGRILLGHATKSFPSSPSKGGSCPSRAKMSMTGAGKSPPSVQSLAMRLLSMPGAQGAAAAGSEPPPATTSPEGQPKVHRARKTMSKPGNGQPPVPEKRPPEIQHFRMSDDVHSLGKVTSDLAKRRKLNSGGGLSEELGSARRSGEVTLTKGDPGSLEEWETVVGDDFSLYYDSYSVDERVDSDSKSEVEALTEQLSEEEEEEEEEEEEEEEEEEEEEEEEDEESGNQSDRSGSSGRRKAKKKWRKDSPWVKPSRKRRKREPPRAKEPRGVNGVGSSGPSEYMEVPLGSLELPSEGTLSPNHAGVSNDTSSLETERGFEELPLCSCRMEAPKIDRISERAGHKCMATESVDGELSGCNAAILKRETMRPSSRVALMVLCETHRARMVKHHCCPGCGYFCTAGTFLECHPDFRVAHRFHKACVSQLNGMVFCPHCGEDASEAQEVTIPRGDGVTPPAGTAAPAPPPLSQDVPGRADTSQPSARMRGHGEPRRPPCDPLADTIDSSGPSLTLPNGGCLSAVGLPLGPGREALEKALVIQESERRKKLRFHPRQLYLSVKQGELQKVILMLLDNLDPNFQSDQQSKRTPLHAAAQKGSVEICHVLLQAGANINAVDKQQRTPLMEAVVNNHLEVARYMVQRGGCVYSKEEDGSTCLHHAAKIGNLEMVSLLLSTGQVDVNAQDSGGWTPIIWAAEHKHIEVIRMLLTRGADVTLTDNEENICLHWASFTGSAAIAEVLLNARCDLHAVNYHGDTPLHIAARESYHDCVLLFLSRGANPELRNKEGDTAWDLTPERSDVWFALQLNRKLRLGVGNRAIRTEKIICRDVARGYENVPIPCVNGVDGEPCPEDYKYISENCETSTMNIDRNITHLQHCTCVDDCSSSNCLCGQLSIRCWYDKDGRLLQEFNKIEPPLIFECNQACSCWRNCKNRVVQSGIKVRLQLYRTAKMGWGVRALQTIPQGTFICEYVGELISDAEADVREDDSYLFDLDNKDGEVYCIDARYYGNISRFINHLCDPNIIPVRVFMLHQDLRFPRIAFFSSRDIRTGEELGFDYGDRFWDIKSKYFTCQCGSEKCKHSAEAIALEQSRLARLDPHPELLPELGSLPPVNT
# SUV39H1 = molecular target: T3, SUV39H1 (Homo sapiens, UniProt O43463); test: Enzyme selectivity assay, SUV39H1; type: biochemical; conditions: means of at least three measurements
# T3 sequence (O43463 1-412): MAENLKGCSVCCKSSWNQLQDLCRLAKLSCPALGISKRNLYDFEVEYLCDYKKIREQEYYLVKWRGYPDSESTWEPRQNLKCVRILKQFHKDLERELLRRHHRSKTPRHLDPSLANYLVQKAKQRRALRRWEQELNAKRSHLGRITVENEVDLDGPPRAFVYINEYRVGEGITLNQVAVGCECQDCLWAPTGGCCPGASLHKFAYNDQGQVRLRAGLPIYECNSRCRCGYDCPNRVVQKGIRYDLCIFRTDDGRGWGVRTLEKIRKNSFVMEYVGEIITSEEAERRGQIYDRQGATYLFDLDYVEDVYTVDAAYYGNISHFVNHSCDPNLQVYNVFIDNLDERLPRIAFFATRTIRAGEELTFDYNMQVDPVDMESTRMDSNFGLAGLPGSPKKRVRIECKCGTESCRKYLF
# SETDB1 = SETDB1 (Homo sapiens, UniProt Q15047); test: Enzyme selectivity assay, SETDB1; type: biochemical; conditions: means of at least three measurements
# PRMT1 = PRMT1 (Homo sapiens, UniProt Q99873); test: Enzyme selectivity assay, PRMT1; type: biochemical; conditions: means of at least three measurements
# SETD8 = molecular target: T4, SETD8 (Homo sapiens, UniProt Q9NQR1); test: Enzyme selectivity assay, SETD8; type: biochemical; conditions: means of at least three measurements
# T4 sequence (Q9NQR1 1-393): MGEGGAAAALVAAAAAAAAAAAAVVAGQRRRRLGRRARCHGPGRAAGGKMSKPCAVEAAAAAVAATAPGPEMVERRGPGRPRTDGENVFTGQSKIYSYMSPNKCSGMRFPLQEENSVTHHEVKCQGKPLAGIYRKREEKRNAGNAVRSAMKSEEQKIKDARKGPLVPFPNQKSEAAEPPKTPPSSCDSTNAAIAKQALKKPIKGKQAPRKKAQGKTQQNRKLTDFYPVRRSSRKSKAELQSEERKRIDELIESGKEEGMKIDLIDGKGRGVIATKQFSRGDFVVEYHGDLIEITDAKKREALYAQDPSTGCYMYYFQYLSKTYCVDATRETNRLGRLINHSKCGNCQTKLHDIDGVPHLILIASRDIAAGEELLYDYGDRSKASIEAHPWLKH
# [1] = system: H3K27me3 level in MDA-MB-231 cell line; test: Western blotting assay of H3K27me3 status; type: cell-based, human; conditions: MDA-MB-231 cells, treatment for 72 h, western blot, total H3 loading control
# Protocol: The main catalytic activity of EZH2 is methylating histone 3 lysine 27 (H3K27), so evaluation of H3K27me3 was conducted through a western blotting assay.
# Figure 3 Analysis of H3K27 methylation in MDA-MB-231 cell line treated with 1 and 5k. Evaluation of H3K27me3 following treatment for 72 h. Total H3 is shown as a loading control.
# The western blotting assay of H3K27 status was performed as previously described.
# PRMT1, sequence (Q99873 whole entry, species assumed): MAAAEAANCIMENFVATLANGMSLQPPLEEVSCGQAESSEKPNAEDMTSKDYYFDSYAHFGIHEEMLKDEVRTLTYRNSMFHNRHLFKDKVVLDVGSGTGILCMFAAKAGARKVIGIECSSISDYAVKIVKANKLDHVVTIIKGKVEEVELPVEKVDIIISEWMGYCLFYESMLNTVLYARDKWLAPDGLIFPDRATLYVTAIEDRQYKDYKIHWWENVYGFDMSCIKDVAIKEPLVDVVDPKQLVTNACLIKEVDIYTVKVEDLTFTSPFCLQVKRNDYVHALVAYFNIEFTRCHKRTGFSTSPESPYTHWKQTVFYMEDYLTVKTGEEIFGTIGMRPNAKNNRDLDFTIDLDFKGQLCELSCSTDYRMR
smiles,measurement,setting,value
"COc1cccc2nc(N3CCCN(C)CC3)cc(NC3CCN(C)CC3)c12 [Compound 5k, 5-Methoxy-2-(4-methyl-1,4-diazepan-1-yl)-N-(1-methylpiperidin-4-yl)quinolin-4-amine]",IC50,"HCT15; Homo sapiens, HCT-15, 96 h, read-out: IC50 HCT15, MTT, treatment 96 h",5.6 µM
same,IC50,"HCT15; read-out: IC50 HCT15, MTT, treatment 96 h",7.6 ± 0.46 µM
same,IC50,MDA-MB-231,2.45 ± 0.24 µM
same,IC50,SMYD3,35.4 ± 1.97 µM
same,IC50,G9a,82.6 ± 2.23 µM
same,IC50,SUV39H1,21.2 ± 0.28 µM
same,IC50,SETDB1,27 ± 1.36 µM
same,IC50,PRMT1,28.8 ± 1.25 µM
same,IC50,SETD8,40 ± 2.71 µM
same,H3K27me3 level,[1],decreased global H3K27me3 level in cells; also recorded: obviously down-regulated
